{
  "source": "patent USRE35053E",
  "about": "“Amines useful in producing pharmaceutically active CNS compounds” (The Upjohn Company, priority 1992, dated 1995)",
  "key": {"mouse head injury": {"system": "mouse head injury", "experiment": "in vivo mouse head injury procedure of Hall, grip test", "conditions": "statistically significant (p<0.05)"}, "arachidonic acid": {"system": "arachidonic acid", "experiment": "Arachidonic Acid Antagonism Assay (AAAA)", "type": "in vivo, mouse (Charles River male CF-1)", "conditions": "mice", "summary_of_the_method": "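Male CF-1 mice ([…]) received compound IV in 1.0% Tween-80/0.1% HCl in water. LD50 was determined by Spearman-Karber (log dose interval 0.05, N-6); an LD50 raised outside the control 95% confidence interval counted as active.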"}, "interleukin-1": {"system": "interleukin-1", "experiment": "inhibition of interleukin-1 induced T cell proliferation assay", "type": "cell-based", "conditions": "interleukin-1; 10^-6 M", "text": "The inhibition of interleukin-1 induced T cell proliferation assay, Proc. Nat. […] Since people with arthritis make excess interleukin 1, compounds which inhibit the activity of interleukin 1 are useful in the treatment of arthritis. According to this procedure compounds which inhibit the activity of interleukin 1 greater that 30% at 10^-6 M are considered to be \"active\"."}, "[1]": {"system": "AcylCoA:Cholesterol Acyltransferase (ACAT)", "experiment": "AcylCoA:Cholesterol Acyltransferase (ACAT) inhibition Assay", "type": "cell-based", "set-up": "key: compounds which inhibit ACAT activity equal to, or greater than, that of chlorpromazine are considered \"active\"", "conditions": "active = equal to or greater than chlorpromazine; Fu5AH cells preferred", "text": "ACAT esterifies arterial cholesterol which is a key reaction in the development of atherosclerosis. The procedure of Bell, Can. J. Blochem. 60. […] In the ACAT assay it is preferred to use Fu5AH cells, see Lipids 9, 526 (1974). According to this procedure, compounds which inhibit ACAT activity equal to, or greater than, that of chlorpromazine are considered \"active\"."}, "[2]": {"system": "serum and arterial cholesterol", "experiment": "Antiatherosclerosis screen in Susceptible to Experimental Atherosclerosis (SEA) Japanese Quail", "type": "in vivo", "conditions": "SEA Japanese quail fed atherogenic diet; active = decrease >30 %", "experimental": "While not necessary, some minor modifications for extraction of cholesterol from the artery have been made. These are as follows: frozen arteries are homogenized in hexane/isopropanol (3/2) and the volume adjusted with Triton 100 solution (1.5% in hexane/isopropanol) to 7 ml. After standing 12 hr at 20°-25°, the supernatant, obtained by low speed centrifugation is evaporated until dry and then the residue is suspended in 0.5 ml of 5% Triton 100 in isopropanol. This suspension is incubated for 10 min at 45° to dissolve the material. This solution as well as the diluted serum samples are analyzed for cholesterol by standard clinical chemistry analyzer methods. According to the above procedure compounds which decrease serum or arterial cholesterol >30 % are considered to be \"active\".\nCompounds which reduce serum and arterial cholesterol and are useful in treating atherosclerosis and its complications; for example, reduction of serum cholesterol by drugs reduces the incidence of coronary heart disease JAMA 251, 351 (1984) and JAMA 251, 365 (1984)."}, "[3]": {"system": "MDA formation in rat brain synaptosomes", "experiment": "Malonyldialdehyde (MDA) Formation Assay (lipid peroxidation)", "type": "biochemical", "conditions": "active = 50% inhibition or more at 200 μM or less", "text": "The MDA assays of Buege and Aust, Methods in Enzymology, Fleisher and Packer Editors. Academic Press, 1978, New York, Vol LII, p 302-310 and Kohn and Liversedge, J. Pharmacol. Exp. Ther. 82. […] Since iipid peroxidation is involved in the pathophysiology of central nervous system trauma, compounds which inhibit MDA formation are useful in treating the conditions listed below.\nWhile not necessary to determine MDA formation, the above assays have been modified as follows: rat brain synaptosomes are prepared as described in the Example about the conjugated diene assay, except that the final wash of the synaptosomes and final suspension are in physiological (normal) saline in which the pH has been adjusted to 7 0. The synaptosomes are incubated for 10 min at 37° in physiological (normal) saline pH 7.0 (total volume=100 ul) containing; 10 ul synaptosomal suspension. 10% DMSO plus or minus drug. 150 uM Fe^+++ and 50 uM Fe^++. The incubation is started by the rapid addition of iron to the otherwise complete reaction. The iron solutions are prepared fresh as ferric chloride and ferrous ammonium sulfate in argon-purged water. Following the 10 min incubation, the reaction is stopped by the addition of 500 ul ice-cold 12% trichloroacetic acid prepared in 0.5 N hydrochloric acid. Water (300 ul) is then added along with 100 ul of freshly prepared thiobarbituric acid (3.3% in 0.5N sodium hydroxide) and 10 ul of 5mM desferrioxamine. The sample is then heated in a boiling water bath for 20 minutes. The samples are cooled and centrifuged for 15 minutes at 1500 xg and the absorbance of the supernatant fraction is read at 532 nm. The % inhibition of MDA formation is calculated by dividing the absorbance of sample containing drug by the absorbance of samples incubated without drug. Reaction blanks are samples incubated in the absence of iron A compound that inhibits MDA formation by 50% or more at a concentration of 200μM or less is considered \"active\"."}, "[4]": {"system": "induced mucous secretions", "experiment": "inhibition of mucous secretion assay of Johnson", "conditions": "inhibit or block enhancement of induced mucous secretions", "text": "The inhibition of mucous secretion assay of Johnson Int. […] According to this procedure compounds which inhibit or block enhancement of induced mucous secretions when tested are considered to be \"active\"."}, "angiogenesis": {"system": "angiogenesis", "experiment": "fertile egg or chick embryo assay of Folkman (inhibition of angiogenesis / tumor growth)", "type": "in vivo", "conditions": "chick embryo; 50 μg/10 μl in the presence of heparin", "experimental": "According to this procedure compounds which are considered to be \"active\" (i.e, antiangiogenic) give an avascular zone of 4 mm or greater in some embryos when tested at 50 μg/10 μl in the presence of 50 μg/10 μ of heparin."}, "aspirin induced ulcer": {"system": "aspirin induced ulcer", "experiment": "aspirin/cold induced ulcer assay of Rainsford", "type": "in vivo", "conditions": "active = 50% or more reduction of ulcer index"}},
  "note": "Counter-ions that a name gives are not always drawn.",
  "data": [
    {"smiles": "C[C@]12CCC(=O)C=C1CC[C@@H]1C2=CC[C@@]2(C)[C@H]1CC[C@]2(O)C(=O)CN1CCOCC1", "note": "[Example 93, 17α-hydroxy-21-(4-morpholino)-pregna-4,9(11)-diene-3,20-dione(E)-2-butanedioate (1:1) salt]", "values": [
      {"measurement": "% Increase in 1 hr Post-Injury Grip Test Scores After 3 mg/kg", "setting": "mouse head injury", "value": 134.5, "unit": "%"},
      {"measurement": "arachidonic acid antagonism (elevation of LD50 of arachidonic acid)", "setting": "arachidonic acid; IV, 15 min before sodium arachidonate, outside 95% confidence interval of control LD50", "value": "demonstrate arachidonic acid antagonism"},
      {"measurement": "% Inhibition at 10^-6 M", "setting": "interleukin-1", "value": 62, "unit": "%"}
    ]},
    {"smiles": "C[C@]12CCC(=O)C=C1CC[C@@H]1C2=CC[C@@]2(C)[C@H]1CC[C@]2(O)C(=O)CN1CCN(c2ccccn2)CC1.Cl", "note": "[Example 3, 17α-Hydroxy-21-[4-(2-pyridinyl) 1 piperazinyl]pregna-4,9(11)-diene-3,20dione hydrogen chloride salt]", "values": [
      {"measurement": "inhibition of ACAT", "setting": "[1]", "value": "active"},
      {"measurement": "reduction of arterial cholesterol", "setting": "[2]", "value": "demonstrates reduction of serum and arterial cholesterol"},
      {"measurement": "reduction of serum cholesterol", "setting": "[2]", "value": "demonstrates reduction of serum and arterial cholesterol"}
    ]},
    {"smiles": "CCN(CC)c1nc(N2CCCCC2)cc(N2CCN(CC(=O)[C@@]3(O)CC[C@H]4[C@@H]5CCC6=CC(=O)CC[C@]6(C)C5=CC[C@@]43C)CC2)n1.Cl.O", "note": "[Example 17, 17α-Hydroxy-21-[4-[2-(diethylamino)-6-(1-piperidinyl)-4-pyrimidinyl]-1-piperazinyl]pregna-4,9(11)-diene-3,20-dione hydrochloride hydrate]", "values": [
      {"measurement": "% of Control LD50", "setting": "arachidonic acid; 100 mg/kg, LD50 of sodium arachidonate", "value": 150, "unit": "%"},
      {"measurement": "inhibition of MDA formation", "setting": "[3]", "value": "demonstrate such activity"},
      {"measurement": "inhibition of ACAT", "setting": "[1]", "value": "active"}
    ]},
    {"smiles": "CCN(CC)c1cc(N2CCN(CC(=O)[C@@]3(O)CC[C@H]4[C@@H]5CCC6=CC(=O)CC[C@]6(C)C5=CC[C@@]43C)CC2)nc(N(CC)CC)n1", "note": "[Example 16, 17α-Hydroxy-21-[4-[2,6-bis(diethylamino)pyrimidinyl]-1-piperazinyl]pregna4,9(11)-diene-3,20-dione dihydro-chloridehydrate]", "values": [
      {"measurement": "% Inhibition at 10^-6 M", "setting": "interleukin-1", "value": 84, "unit": "%"},
      {"measurement": "inhibition of mucous secretion", "setting": "[4]", "value": "demonstrate such activity"},
      {"measurement": "% of Embryos with 4 mm or Greater A vascular Zone", "setting": "angiogenesis", "value": 91, "unit": "%"},
      {"measurement": "anti-ulcer activity", "setting": "aspirin induced ulcer", "value": "demonstrates anti-ulcer activity"}
    ]},
    {"smiles": "CCN(CC)c1cc(N2CCN(CC(=O)[C@@]3(O)[C@H](C)C[C@H]4[C@@H]5CCC6=CC(=O)C=C[C@]6(C)C5=CC[C@@]43C)CC2)nc(N(CC)CC)n1.Cl.O", "note": "[Example 18, 21-[4-[2,6-Bis(diethylamino)-4-pyrimidinyl]-1-piperazinyl]-17α-hydroxy-16α-methylpregna-1,4,9(11)-triene-3,20-dione hydrochloride hydrate]", "values": [
      {"measurement": "inhibition of ACAT", "setting": "[1]", "value": "active"},
      {"measurement": "inhibition of mucous secretion", "setting": "[4]", "value": "demonstrate such activity"}
    ]},
    {"smiles": "CCNc1cccc(N2CCN(CC(=O)[C@H]3[C@H](C)C[C@H]4[C@@H]5CCC6=CC(=O)C=C[C@]6(C)C5=CC[C@@]43C)CC2)n1", "note": "[Example 127, 21-[4-[6-(Ethylamino)-2-pyridinyl]piperazinyl]-16α-methylpregna-1,4,9(11)-triene-3,20-dione hydrochloride]", "values": [
      {"measurement": "% Increase in 1 hr Post-Injury Grip Test Scores After 3 mg/kg", "setting": "mouse head injury", "value": 200.8, "unit": "%"}
    ]}
  ]
}
